Experimental data: EPA's ToxRefDB 2

How the values were obtained:
rat [1] = conditions: Multigenerational reproductive toxicity study, sprague dawley, Oral, Feed, dose end: 2 generation
rat [2] = conditions: Subchronic oral toxicity in rodents, wistar, Feed, dose end: 13 week, group: systemic, systemic / clinical chemistry / [other] / [other] + systemic / clinical chemistry / alkaline phosphatase (alp/alk) / alkaline phosphatase (…
rat [3] = conditions: Combined chronic toxicity/carcinogenicity, wistar, Oral, Feed, dose end: 2 year, group: systemic
rat [4] = conditions: Combined chronic toxicity/carcinogenicity, other, Oral, Feed, dose end: 2 year, group: systemic
mouse [5] = conditions: Carcinogenicity; other; Oral; Feed; dose end: 24 month; group: systemic; systemic / clinical chemistry / alkaline phosphatase (alp/alk) / alkaline phosphatase (alp/alk) + systemic / organ weight / heart / nos + …
dog [6] = conditions: Chronic toxicity, beagle, Oral, Feed, dose end: 15 month, group: systemic
mouse [7] = conditions: Subchronic oral toxicity in rodents, other, Feed, dose end: 13 week, group: systemic
rabbit = conditions: Prenatal developmental toxicity study, new zealand white, Oral, Gavage/Intubation, dose end: 19 GD
rat [8] = conditions: Subchronic oral toxicity in rodents, sprague dawley, Feed, dose end: 13 week, group: systemic
rat [9] = conditions: Prenatal developmental toxicity study, other, Oral, Gavage/Intubation, dose end: 15 GD
dog [10] = conditions: Chronic toxicity, beagle, Injection, Subcutaneous, dose end: 74 week, group: systemic
rat [11] = conditions: Developmental neurotoxicity study; other; Injection; Intraperitoneal; dose end: 141 PND; group: cannot be grouped; systemic / clinical chemistry / norepinephrine (noradrenaline) / norepinephrine (noradrenaline) + systemic / in life observation / water …
rat [12] = conditions: Developmental neurotoxicity study; wistar; Oral; Water; dose end: 60 PND; group: cannot be grouped; systemic / in life observation / body weight / offspring (pup) weight gain
[13] = group: offspring, developmental / developmental landmark / eye opening / eye opening + developmental / developmental landmark / incisor eruption / incisor …
[14] = group: offspring, systemic / organ weight / adrenal gland / absolute
[15] = group: parental, systemic / organ weight / uterus / absolute
[16] = systemic / clinical chemistry / albumin / albumin + systemic / clinical chemistry / alkaline phosphatase (alp/alk) / alkaline phosphatase (…
[17] = systemic / pathology microscopic / lung / cholesterol cleft(s) + systemic / pathology microscopic / lung / foam cell aggregation
[18] = systemic / pathology microscopic / lung / cholesterol cleft(s) + systemic / pathology microscopic / lung / foam cell aggregation + systemic…
[19] = systemic / pathology gross / liver / accentuated lobular pattern + systemic / pathology microscopic / liver / fatty change
[20] = systemic / pathology gross / liver / accentuated lobular pattern + systemic / pathology microscopic / liver / fatty change + systemic / …
[21] = systemic / pathology microscopic / liver / necrosis
[22] = systemic / pathology microscopic / liver / necrosis + systemic / clinical chemistry / [other] / [other] + systemic / pathology microscopic…
[23] = group: developmental, developmental / developmental malformation / general / [other] + developmental / developmental malformation / bone / arthrogryposis + …
[24] = group: maternal, systemic / in life observation / body weight / body weight + systemic / in life observation / food consumption / food efficiency + systemic…
[25] = systemic / clinical chemistry / alanine aminotransferase (alt/sgpt) / alanine aminotransferase (alt/sgpt) + systemic / clinical chemistry / …
[26] = systemic / urinalysis / appearance and color / appearance and color + systemic / organ weight / liver / relative to body weight
[27] = group: developmental, developmental / developmental malformation / bone / incomplete ossification + developmental / developmental malformation / bone / unossified
[28] = group: maternal, reproductive / reproductive performance / aborted / aborted + systemic / in life observation / body weight / body weight + systemic / in …
[29] = systemic / clinical chemistry / cholesterol / cholesterol + systemic / clinical chemistry / glucose / glucose + systemic / hematology / […
[30] = systemic / clinical chemistry / cholesterol / cholesterol + systemic / hematology / [other] / [other] + systemic / hematology / hematocrit (…

With `COC(=O)C(C)Oc1ccc(Oc2ccc(Cl)cc2Cl)cc1` (stereo not drawn) [Diclofop-methyl] the LOAEL (rat [1]; [13]) was 7.3 mg/kg/day, the NOAEL (rat [1]; [13]) was 2.1 mg/kg/day and the LEL (rat [1]; [14]) was 0.9 mg/kg/day. For the same molecule, the NEL (rat [1]; [14]) was under 0.9 mg/kg/day, the LOAEL (rat [1]; group: parental, systemic / organ weight / liver / absolute + systemic / organ weight / liver / relative to body weight) was 2.1 mg/kg/day and the NOAEL (rat [1]; group: parental, systemic / organ weight / liver / absolute + systemic / organ weight / liver / relative to body weight + systemic / organ weight / kidney / …) was 0.7 mg/kg/day. For the same molecule, the LEL (rat [1]; [15]) was 0.9 mg/kg/day, the NEL (rat [1]; [15]) was under 0.9 mg/kg/day and the LEL (rat [2]) was 6.32 mg/kg/day. For the same molecule, the LOAEL (rat [2]) was 6.32 mg/kg/day, the NOAEL (rat [2]) was 1.56 mg/kg/day and the LEL (rat [3]; [16]) was 2.3 mg/kg/day. For the same molecule, the LOAEL (rat [3]; [16]) was 2.3 mg/kg/day, the NOAEL (rat [3]; [16]) was 0.23 mg/kg/day and the NEL (rat [3]; systemic / hematology / hemoglobin (hgb) / hemoglobin (hgb) + systemic / hematology / erythrocyte (rbc) count differential / erythrocyte (…) was 0.23 mg/kg/day. The LEL (rat [4]; [17]) was 0.32 mg/kg/day, the LOAEL (rat [4]; [17]) was 0.32 mg/kg/day and the NEL (rat [4]; [18]) was 0.1 mg/kg/day. It also gave an NOAEL (rat [4]; [18]) of 0.1 mg/kg/day, an LEL (mouse [5]) of 0.76 mg/kg/day and an LOAEL (mouse [5]) of 0.76 mg/kg/day. The NEL (mouse [5]) was 0.24 mg/kg/day, the NOAEL (mouse [5]) was 0.24 mg/kg/day and the LEL (dog [6]; [19]) was 0.625 mg/kg/day. For the same molecule, the LOAEL (dog [6]; [19]) was 0.625 mg/kg/day, the NEL (dog [6]; [20]) was 0.2 mg/kg/day and the NOAEL (dog [6]; [20]) was 0.2 mg/kg/day. It also gave an LEL (mouse [7]; [21]) of 0.3 mg/kg/day, an NEL (mouse [7]; [21]) of under 0.3 mg/kg/day and an LOAEL (mouse [7]; [22]) of 1 mg/kg/day. The NOAEL (mouse [7]; [22]) was 0.3 mg/kg/day.
`CCC(C)Nc1c([N+](=O)[O-])cc(C(C)(C)C)cc1[N+](=O)[O-]` (stereo not drawn) [Butralin] was tested, and the LOAEL (rabbit; group: developmental, developmental / developmental malformation / general / [other]) was 45 mg/kg/day, the LEL (rabbit; [23]) was 45 mg/kg/day and the NEL (rabbit; [23]) was 15 mg/kg/day. For the same molecule, the NOAEL (rabbit; [23]) was 15 mg/kg/day, the LOAEL (rabbit; group: maternal, systemic / in life observation / body weight / body weight + systemic / in life observation / food consumption / food efficiency) was 135 mg/kg/day and the LEL (rabbit; [24]) was 135 mg/kg/day. It also gave an NEL (rabbit; [24]) of 45 mg/kg/day, an NOAEL (rabbit; [24]) of 45 mg/kg/day and an LOAEL (rat [8]; [25]) of 50 mg/kg/day. The NOAEL (rat [8]; [25]) was 10 mg/kg/day, the LEL (rat [8]; [26]) was 10 mg/kg/day and the NEL (rat [8]; [26]) was under 10 mg/kg/day. The LEL (rat [9]; [27]) was 500 mg/kg/day, the LOAEL (rat [9]; [27]) was 500 mg/kg/day and the NEL (rat [9]; [27]) was under 500 mg/kg/day. The NOAEL (rat [9]; [27]) was under 500 mg/kg/day, the LEL (rat [9]; [28]) was 1250 mg/kg/day and the LOAEL (rat [9]; [28]) was 1250 mg/kg/day. The NEL (rat [9]; [28]) was 500 mg/kg/day and the NOAEL (rat [9]; [28]) was 500 mg/kg/day.
`CC(=O)[C@H]1CC[C@H]2[C@@H]3CCC4=CC(=O)CC[C@]4(C)[C@H]3CC[C@]12C` [Progesterone] gave an LOAEL (dog [10]; [29]) of over 22.5 mg/kg/day, an NOAEL (dog [10]; [29]) of at least 22.5 mg/kg/day and an LEL (dog [10]; [30]) of 2.5 mg/kg/day. It also gave an NEL (dog [10]; [30]) of under 2.5 mg/kg/day.
With `CC(C)NCC(O)COc1cccc2ccccc12.Cl` (stereo not drawn) [Propranolol hydrochloride] the LEL (rat [11]) was 5 mg/kg/day, the LOAEL (rat [11]) was over 5 mg/kg/day and the NEL (rat [11]) was under 5 mg/kg/day. It also gave an NOAEL (rat [11]) of at least 5 mg/kg/day, an LEL (rat [12]) of 10 mg/kg/day and an LOAEL (rat [12]) of over 10 mg/kg/day. For the same molecule, the NEL (rat [12]) was under 10 mg/kg/day and the NOAEL (rat [12]) was at least 10 mg/kg/day.
